Where two headings read alike, the source gives them in different places.
What was measured:
[1] = 500 mg to 1000 mg daily; cited from earlier work
BV2 microglial cells = test: Microglial Aβ42 uptake/clearance in BV2 microglial cells, measured by Aβ ELISA; assay type: cell-based
Protocol: Urolithin A was identified as a top-tier enhancer of Aβ clearance by microglia in an unbiased (and biased) screening of natural product compounds. Cellular assay models based on BV2 microglial cells were used to assess the ability of microglia to phagocytose synthetic Aβ42 peptides, a major pathogenic Aβ isoform of Alzheimer's disease Aβ species (microglial uptake/clearance).
The ability of the agents, alone or in combination, to increase microglial Aβ uptake was also assessed (FIG. 9). […] FIGS. 11B-11D and FIGS. 12A-12F show TNFα levels in response to treatment with cat's claw (#134), urolithin A (#144), fisetin (NP-82) and quercetin (NP-162), alone or in various combinations.

TNFα = TNFα release by LPS-activated BV2 microglial cells, ELISA on conditioned cell media; assay type: cell-based; conditions: for TNFα release / LPS-induced microglial pro-inflammatory activation: Example 1, BV2 cells, FIGS. 2, 4B, 5; for TNFα release / LPS-induced microglial pro-inflammatory activation / EC50: 1 μg/mL LPS for 5 hours; for EC50: Mus musculus, BV-2, BV2 cells, read-out: EC50 of TNFα reduction
Protocol: Effects of urolithin A and fisetin on the reduction of pro-inflammatory cytokines levels, such as TNFα, were assessed in an unbiased library screening. BV2 microglial cells were converted to a pro-inflammatory activation state by acute treatment with 1 μg/mL of Lipopolysaccharide (LPS) for 5 hours in the presence of a vehicle or urolithin A or fisetin. Effects on inflammation were assessed by measuring levels of a representative pro-inflammatory cytokine, TNFα, via an ELISA assay on the conditioned cell media. FIGS. 2A and 2B show representative results of the dose-response reduction of TNFα after treatment with LPS and urolithin A and fisetin, respectively.
BV2 microglial cells were next treated with 1 μg/mL of LPS for 5 hours in the presence of urolithin A and fisetin at different concentrations, alone or in combination (FIG. 5). Levels of TNFα secreted by the microglial cells into the conditioned cell media were measured using ELISA.
Effects of urolithin A, fisetin, nicotinamide riboside, cat's claw, and quercetin, alone or in combination, on TNFα concentration were assessed (FIGS. 6A-6E and 7A-7C). BV2 microglial cells were converted to a pro-inflammatory activation state by acute treatment with 1 μg/mL of Lipopolysaccharide (LPS) for 5 hours in the presence of a vehicle or nicotinamide riboside (#101), cat's claw (#134), urolithin A (#144), fisetin (NP-82) or quercetin (NP-162), alone or in combination. Effects on inflammation were assessed by measuring levels of TNF&, via an ELISA assay on the conditioned cell media.

Row | EC50 (BV2 microglial cells; Mus musculus, BV-2, BV2 microglial cells, synthetic Aβ42 peptides, FIG. 1) | EC50 (TNFα; FIG. 2A) | EC50 (TNFα; FIG. 2B) | SMILES | reported safety and/or usefulness [1] | microglial Aβ uptake/clearance (BV2 microglial cells; Example 1, BV2 microglial cells, FIG. 1 and FIG. 3) | TNFα release / LPS-induced microglial pro-inflammatory activation (TNFα) | reduction of TNFα levels (TNFα; fisetin alone, LPS-treated BV2 microglia cells, FIG. 4B)
1 | 12.4 µM | 21 µM | – | O=c1oc2cc(O)ccc2c2ccc(O)cc12 [urolithin A, 3,8-dihydroxy-6H-benzo[b,d]pyran-6-one] | safe and/or useful | increases microglial Aβ uptake/clearance in a dose-dependent manner | reduce TNFα release by LPS-activated microglia in a dose-dependent manner | –
2 | – | – | 8 µM | O=c1c(O)c(-c2ccc(O)c(O)c2)oc2cc(O)ccc12 [fisetin, 3,3′,4′,7-tetrahydroxyflavone] | – | – | reduce TNFα release by LPS-activated microglia in a dose-dependent manner | roughly 75%
